# Source: US8772304B2, “Benzimidazole inhibitors of leukotriene production” (Boehringer Ingelheim International GmbH, priority 2010, dated 2014)
# Columns and labels:
# [1] = system: biomarkers for myocardial infarction risk; conditions: clinical trial; cited from earlier work
# [2] = target: recombinant human FLAP protein (Homo sapiens (Human), UniProt P20292); assay: FLAP binding assay (Scintillation Proximity Assay, displacement of iodinated FLAP inhibitor); conditions: displacement of [125I]L-691,831; membranes of sf9 cells expressing recombinant human FLAP; read-out: hFLAP binding IC50
# Experimental: Compounds are assessed for the ability to bind to FLAP in a binding assay that measures compound-specific displacement of an iodinated (^125I) FLAP inhibitor via a Scintillation Proximity Assay format (adapted from S. Charleson et al., Mol. Pharmacol., 1992, 41, 873-879).
# Cell pellets produced from sf9 insect cells expressing recombinant human FLAP protein are resuspended in buffer A [15 mM Tris-HCl (pH 7.5), 2 mM MgCl2, 0.3 mM EDTA, 1 mM PMSF]. The cells are lysed with a Dounce homogenizer and the material is centrifuged at 10,000×g for 10 minutes. The supernatant is then collected and centrifuged at 100,000×g for 60 minutes. To prepare membrane protein for an assay, an aliquot of the 100,000×g pellet is resuspended in 1 ml of buffer A, Dounce homogenized, and finally subjected to polytron mixing (30 seconds). Membrane protein (25 μl, 5 μg) is mixed with WGA SPA beads (Amersham) and stirred for 1 h. […] (final concentrations: beads, 200 μg/well; protein, 5 μg/well; [^125I] probe, 0 08 nM/well (17 nCi/well). The plates are shaken for 2 h before reading on a Microbeta plate reader. Non-specific binding is determined by the addition of 10 μM cold L-691,831 compound.
# [3] = system: synthesis of LTB4 in human whole blood; assay: human whole blood LTB4 production inhibition assay; format: cell-based; conditions: heparinized human whole blood, calcimycin 20 μM stimulation, plasma LTB4; read-out: hWB IC50
# Experimental: Compounds are additionally tested in a human whole blood assay to determine their ability to inhibit the synthesis of LTB4 in a cellular system. Compounds are combined with heparinized human whole blood and incubated for 15 minutes at 37° C. Calcimycin (20 μM final, prepared in phosphate-buffered saline, pH 7.4) is then added and the mixture is incubated for another 30 minutes at 37° C. The samples are centrifuged for 5 min at low speed (1500×g) and the plasma layer is removed. Plasma LTB4 concentrations are then measured using an antibody-based homogenous time-resolved fluorescence method (CisBio, Bedford, Mass.).
# proteinuria = conditions: clinical trial, human glomerulonephritis; cited from earlier work
# atherosclerotic plaque [4] = conditions: infusion, ApoE−/−xCD4dnTβRII mice, treated for four weeks; cited from earlier work
# atherosclerotic plaque [5] = conditions: oral dosing, apoE/LDL-R double knockout mice, high-fat diet from 2 to 6 months of age; cited from earlier work
# Chain of recombinant human FLAP protein (P20292 whole entry): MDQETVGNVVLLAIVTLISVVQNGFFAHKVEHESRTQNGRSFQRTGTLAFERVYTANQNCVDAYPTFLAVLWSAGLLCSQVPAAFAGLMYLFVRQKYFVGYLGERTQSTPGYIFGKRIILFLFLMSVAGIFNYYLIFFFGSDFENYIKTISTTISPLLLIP
structure (smiles),measurement,setting,value
O=C(O)[C@@H](c1ccc(OCc2ccc3ccccc3n2)cc1)C1CCCC1 [DG-031],effect on biomarkers for myocardial infarction risk,[1],dose-dependent suppression of several biomarkers
"CCC(C)(C)n1c(-c2cc(Br)cnc2-n2cncn2)nc2cc(-c3cnc(N)nc3)ccc21 [Example 27, 5-[2-(5-Bromo-2-1,2,4-triazol-1-yl-pyridin-3-yl)-1-(1,1-dimethyl-propyl)-1H-benzimidazol-5-yl]-pyrimidin-2-ylamine]",IC50,[2],0.023 µM
same,IC50,[3],0.667 µM
"Cc1ccc(-c2nc3cc(-c4cnc(N)nc4)ccc3n2C(C)(C)C)c(-n2cncn2)n1 [Example 28, 5-[1-tert-Butyl-2-(6-methyl-2-1,2,4-triazol-1-yl-pyridin-3-yl)-1H-benzimidazol-5-yl]-pyrimidin-2-ylamine]",IC50,[2],0.017 µM
same,IC50,[3],0.194 µM
CC(C)(C)Sc1c(CC(C)(C)C(=O)O)n(Cc2ccc(Cl)cc2)c2ccc(OCc3ccc4ccccc4n3)cc12 [MK-591],effect on proteinuria,proteinuria,reduce proteinuria
CC(C)c1ccc2c(c1)c(SC(C)(C)C)c(CC(C)(C)C(=O)O)n2Cc1ccc(Cl)cc1 [MK-886],decrease in plaque area in the aortic root,atherosclerotic plaque [4],~40%
same,decrease in plaque coverage in the aorta,atherosclerotic plaque [5],56%
same,decrease in plaque coverage in the aortic root,atherosclerotic plaque [5],43%
